Read-outs that look alike come from different tables or passages of the source. Bridge positions count the residues as written; N and C are the ends. Peptide text beside a SMILES is read from it.
Assays:
[1] = test system: thapsigargin-induced IL-2 production in human whole blood
[2] = test system: thapsigargin-induced IFN-g production in human whole blood; format: cell-based
human Kv1.3 = human Kv1.3 (Homo sapiens, UniProt P22001); format: cell-based; design: expressed in transfected cells
[3] = read-out: Analogue Activity (IC50) WB/IL-2
[4] = read-out: Analogue Activity (IC50) WB/IFNg

Chain of human Kv1.3 (P22001 whole entry): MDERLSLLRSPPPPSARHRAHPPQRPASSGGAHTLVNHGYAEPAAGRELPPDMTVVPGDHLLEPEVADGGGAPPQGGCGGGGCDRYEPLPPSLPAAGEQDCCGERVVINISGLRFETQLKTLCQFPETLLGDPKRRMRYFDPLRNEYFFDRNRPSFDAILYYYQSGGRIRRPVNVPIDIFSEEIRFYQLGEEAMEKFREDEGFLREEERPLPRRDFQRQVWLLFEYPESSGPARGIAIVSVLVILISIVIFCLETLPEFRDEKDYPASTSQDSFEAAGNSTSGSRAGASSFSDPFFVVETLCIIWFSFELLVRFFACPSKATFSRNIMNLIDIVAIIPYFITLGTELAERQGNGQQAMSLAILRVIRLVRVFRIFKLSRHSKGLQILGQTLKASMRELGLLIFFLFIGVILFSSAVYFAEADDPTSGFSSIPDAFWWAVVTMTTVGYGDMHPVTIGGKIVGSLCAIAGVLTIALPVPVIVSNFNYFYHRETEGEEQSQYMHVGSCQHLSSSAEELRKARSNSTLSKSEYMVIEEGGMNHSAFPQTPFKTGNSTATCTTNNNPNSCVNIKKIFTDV

Molecule: CC[C@H](C)[C@@H]1NC(=O)[C@H](CCCCN)NC(=O)[C@@H](NC(=O)[C@H](CCCCN)NC(=O)[C@@H](NC(=O)[C@H](CC(N)=O)NC(=O)[C@@H](NC(=O)[C@@H](NC(=O)[C@@H](NC(=O)CN)C(C)C)[C@@H](C)CC)[C@@H](C)CC)C(C)C)CSSC[C@@H]2NC(=O)[C@H](CCCCN)NC(=O)CNC(=O)[C@H](Cc3ccccc3)NC(=O)[C@H](CCCNC(=N)N)NC(=O)[C@H](CCSC)NC(=O)CNC(=O)[C@H](C)NC(=O)[C@H](CCCCN)NC(=O)[C@H](CCCCN)NC(=O)[C@@H]3CSSC[C@@H](C(=O)N[C@H](C(=O)N4CCC[C@H]4C(=O)N[C@@H](CCCCN)C(=O)O)[C@@H](C)O)NC(=O)[C@H](Cc4c[nH]cn4)NC(=O)[C@H](CSSC[C@H](NC(=O)[C@H](CCC(N)=O)NC(=O)[C@H](CCCNC(=N)N)NC(=O)[C@H](CO)NC1=O)C(=O)N[C@@H](CC(C)C)C(=O)N[C@@H](CCC(=O)O)C(=O)N1CCC[C@H]1C(=O)N3)NC(=O)[C@H](CCCCN)NC(=O)CNC(=O)[C@H](CC(N)=O)NC(=O)[C@H](C)NC2=O [M29A] (H-GVIINVKCKISRQCLEPCKKAGMRFGKCANGKCHCTPK-OH; disulfide 8-28, 14-33, 18-35)
- IC50 [1, 3]: 0.447 nM
- IC50 [2, 4]: 0.292 nM
- Kv1.3 Selectivity (= Kv1.1/Kv.3 IC50) (human Kv1.3): 105
- IC50 (human Kv1.3; read-out: Kv1.3 (IC50)): 0.033 nM

Molecule: CC[C@H](C)[C@@H]1NC(=O)[C@H](CCCCN)NC(=O)[C@@H](NC(=O)[C@H](CCCCN)NC(=O)[C@@H](NC(=O)[C@H](CC(N)=O)NC(=O)[C@@H](NC(=O)[C@@H](NC(=O)[C@@H](NC(=O)CN)C(C)C)[C@@H](C)CC)[C@@H](C)CC)C(C)C)CSSC[C@@H]2NC(=O)[C@H](C)NC(=O)CNC(=O)[C@H](Cc3ccccc3)NC(=O)[C@H](CCCNC(=N)N)NC(=O)[C@H](CCSC)NC(=O)CNC(=O)[C@H](C)NC(=O)[C@H](CCCCN)NC(=O)[C@H](CCCCN)NC(=O)[C@@H]3CSSC[C@@H](C(=O)N[C@H](C(=O)N4CCC[C@H]4C(=O)N[C@@H](CCCCN)C(=O)O)[C@@H](C)O)NC(=O)[C@H](Cc4c[nH]cn4)NC(=O)[C@H](CSSC[C@H](NC(=O)[C@H](CCC(N)=O)NC(=O)[C@H](CCCNC(=N)N)NC(=O)[C@H](CO)NC1=O)C(=O)N[C@@H](CC(C)C)C(=O)N[C@@H](CCC(=O)O)C(=O)N1CCC[C@H]1C(=O)N3)NC(=O)[C@H](CCCCN)NC(=O)CNC(=O)[C@H](CC(N)=O)NC(=O)[C@H](CCSC)NC2=O [K27A] (H-GVIINVKCKISRQCLEPCKKAGMRFGACMNGKCHCTPK-OH; disulfide 8-28, 14-33, 18-35)
- IC50 [1, 3]: 1.23 nM
- IC50 [2, 4]: 1.58 nM
- Kv1.3 Selectivity (= Kv1.1/Kv.3 IC50) (human Kv1.3): 35

Molecule: CC[C@H](C)[C@@H]1NC(=O)[C@H](CCCCN)NC(=O)[C@@H](NC(=O)[C@H](CCCCN)NC(=O)[C@@H](NC(=O)[C@H](CC(N)=O)NC(=O)[C@@H](NC(=O)[C@@H](NC(=O)[C@@H](NC(=O)CN)C(C)C)[C@@H](C)CC)[C@@H](C)CC)C(C)C)CSSC[C@@H]2NC(=O)[C@H](CCCCN)NC(=O)CNC(=O)[C@H](Cc3ccccc3)NC(=O)[C@H](CCCNC(=N)N)NC(=O)[C@H](CCSC)NC(=O)CNC(=O)[C@H](C)NC(=O)[C@H](CCCCN)NC(=O)[C@H](CCCCN)NC(=O)[C@@H]3CSSC[C@@H](C(=O)N[C@H](C(=O)N4CCC[C@H]4C(=O)N[C@@H](CCCCN)C(=O)O)[C@@H](C)O)NC(=O)[C@H](Cc4c[nH]cn4)NC(=O)[C@H](CSSC[C@H](NC(=O)[C@H](CCC(N)=O)NC(=O)[C@H](CCCNC(=N)N)NC(=O)[C@H](CO)NC1=O)C(=O)N[C@@H](CCC(=O)O)C(=O)N[C@@H](CCC(=O)O)C(=O)N1CCC[C@H]1C(=O)N3)NC(=O)[C@H](CCCCN)NC(=O)CNC(=O)[C@H](CC(N)=O)NC(=O)[C@H](CCSC)NC2=O [L15E] (H-GVIINVKCKISRQCEEPCKKAGMRFGKCMNGKCHCTPK-OH; disulfide 8-28, 14-33, 18-35)
- IC50 [1, 3]: 0.785 nM
- IC50 [2, 4]: 1.06 nM
- Kv1.3 Selectivity (= Kv1.1/Kv.3 IC50) (human Kv1.3): 342

Molecule: CC[C@H](C)[C@@H]1NC(=O)[C@H](CCCCN)NC(=O)[C@@H](NC(=O)[C@H](CCCCN)NC(=O)[C@@H](NC(=O)[C@H](CC(N)=O)NC(=O)[C@@H](NC(=O)[C@@H](NC(=O)[C@@H](NC(=O)CN)C(C)C)[C@@H](C)CC)[C@@H](C)CC)C(C)C)CSSC[C@@H]2NC(=O)[C@H](CCCCN)NC(=O)CNC(=O)[C@H](Cc3ccccc3)NC(=O)[C@H](CCCNC(=N)N)NC(=O)[C@H](CCSC)NC(=O)CNC(=O)[C@H](C)NC(=O)[C@H](CCCCN)NC(=O)[C@H](CCCCN)NC(=O)[C@@H]3CSSC[C@@H](C(=O)N[C@H](C(=O)N4CCC[C@H]4C(=O)N[C@@H](CCCCN)C(=O)O)[C@@H](C)O)NC(=O)[C@H](Cc4c[nH]cn4)NC(=O)[C@H](CSSC[C@H](NC(=O)[C@H](CCC(N)=O)NC(=O)[C@H](C)NC(=O)[C@H](CO)NC1=O)C(=O)N[C@@H](CC(C)C)C(=O)N[C@@H](CCC(=O)O)C(=O)N1CCC[C@H]1C(=O)N3)NC(=O)[C@H](CCCCN)NC(=O)CNC(=O)[C@H](CC(N)=O)NC(=O)[C@H](CCSC)NC2=O [R12A] (H-GVIINVKCKISAQCLEPCKKAGMRFGKCMNGKCHCTPK-OH; disulfide 8-28, 14-33, 18-35)
- IC50 [1, 3]: 0.123 nM
- IC50 [2, 4]: 0.155 nM
- Kv1.3 Selectivity (= Kv1.1/Kv.3 IC50) (human Kv1.3): 17

Molecule: CC[C@H](C)[C@@H]1NC(=O)[C@H](CCCCN)NC(=O)[C@@H](NC(=O)[C@H](CCCCN)NC(=O)[C@@H](NC(=O)[C@H](CC(N)=O)NC(=O)[C@@H](NC(=O)[C@@H](NC(=O)[C@@H](NC(=O)[C@@H](N)CCC(=O)O)C(C)C)[C@@H](C)CC)[C@@H](C)CC)C(C)C)CSSC[C@@H]2NC(=O)[C@H](CCCCN)NC(=O)CNC(=O)[C@H](Cc3ccccc3)NC(=O)[C@H](CCCNC(=N)N)NC(=O)[C@H](CCSC)NC(=O)CNC(=O)[C@H](C)NC(=O)[C@H](CCCCN)NC(=O)[C@H](CCCCN)NC(=O)[C@@H]3CSSC[C@@H](C(=O)N[C@H](C(=O)N4CCC[C@H]4C(=O)N[C@@H](CCCCN)C(=O)O)[C@@H](C)O)NC(=O)[C@H](Cc4c[nH]cn4)NC(=O)[C@H](CSSC[C@H](NC(=O)[C@H](CCC(N)=O)NC(=O)[C@H](CCCNC(=N)N)NC(=O)[C@H](CO)NC1=O)C(=O)N[C@@H](CC(C)C)C(=O)N[C@@H](CCC(=O)O)C(=O)N1CCC[C@H]1C(=O)N3)NC(=O)[C@H](CCCCN)NC(=O)CNC(=O)[C@H](CC(N)=O)NC(=O)[C@H](CCSC)NC2=O [G1E] (H-EVIINVKCKISRQCLEPCKKAGMRFGKCMNGKCHCTPK-OH; disulfide 8-28, 14-33, 18-35)
- IC50 [1, 3]: 1.22 nM
- IC50 [2, 4]: 1.25 nM

Molecule: GVIINVKCKISRQCLEPCKAAGMRFGKCMNGKCHCTPK [Ala-20 (SEQ ID No: 1416)]
- IC50 ([1]; read-out: Average IC50 IL-2): 0.379 nM
- IC50 ([2]; read-out: Average IC50 IFNg): 0.379 nM

Molecule: CC[C@H](C)[C@H](NC(=O)[C@H](C)NC(=O)[C@@H](NC(=O)CN)C(C)C)C(=O)N[C@@H](CC(N)=O)C(=O)N[C@H](C(=O)N[C@@H](CCCCN)C(=O)N[C@H]1CSSC[C@@H]2NC(=O)[C@H](CCCCN)NC(=O)CNC(=O)[C@H](Cc3ccccc3)NC(=O)[C@H](CCCNC(=N)N)NC(=O)[C@H](CCSC)NC(=O)CNC(=O)[C@H](C)NC(=O)[C@H](CCCCN)NC(=O)[C@H](CCCCN)NC(=O)[C@@H]3CSSC[C@@H](C(=O)N[C@H](C(=O)N4CCC[C@H]4C(=O)N[C@@H](CCCCN)C(=O)O)[C@@H](C)O)NC(=O)[C@H](Cc4c[nH]cn4)NC(=O)[C@H](CSSC[C@H](NC(=O)[C@H](CCC(N)=O)NC(=O)[C@H](CCCNC(=N)N)NC(=O)[C@H](CO)NC(=O)[C@H]([C@@H](C)CC)NC(=O)[C@H](CCCCN)NC1=O)C(=O)N[C@@H](CC(C)C)C(=O)N[C@@H](CCC(=O)O)C(=O)N1CCC[C@H]1C(=O)N3)NC(=O)[C@H](CCCCN)NC(=O)CNC(=O)[C@H](CC(N)=O)NC(=O)[C@H](CCSC)NC2=O)C(C)C [I3A] (H-GVAINVKCKISRQCLEPCKKAGMRFGKCMNGKCHCTPK-OH; disulfide 8-28, 14-33, 18-35)
- IC50 [1, 3]: 0.0883 nM
- IC50 [2, 4]: 0.0992 nM

B1: FcLoop-G2-OSK-G2 (protein)
chain: MDKTHTCPPCPAPELLGGPSVFLFPPKPKDTLMISRTPEVTCVVVDVSHEDPEVKFNWYVDGVEVHNAKTKPREEQYNSTYRVVSVLTVLHQDWLNGKEYKCKVSNKALPAPIEKTISKAKGQPREPQVYTLPPSRDELGGGVIINVKCKISRQCLEPCKKAGMRFGKCMNGKCHCTPKGGTKNQVSLTCLVKGFYPSDIAVEWESNGQPENNYKTTPPVLDSDGSFFLYSKLTVDKSRWQQGNVFSCSVMHEALHNHYTQKSLSLSPGK
- IC50 ([1]; read-out: WB/IL-2 (IC50)): 0.028 nM
- IC50 ([2]; read-out: WB/IFNg (IC50)): 0.056 nM

B2: FcLoop-G2-ShK-G2 (protein)
chain: MDKTHTCPPCPAPELLGGPSVFLFPPKPKDTLMISRTPEVTCVVVDVSHEDPEVKFNWYVDGVEVHNAKTKPREEQYNSTYRVVSVLTVLHQDWLNGKEYKCKVSNKALPAPIEKTISKAKGQPREPQVYTLPPSRDELGGRSCIDTIPKSRCTAFQCKHSMKYRLSFCRKTCGTCGGTKNQVSLTCLVKGFYPSDIAVEWESNGQPENNYKTTPPVLDSDGSFFLYSKLTVDKSRWQQGNVFSCSVMHEALHNHYTQKSLSLSPGK
- IC50 ([1]; read-out: WB/IL-2 (IC50)): 0.109 nM
- IC50 ([2]; read-out: WB/IFNg (IC50)): 0.119 nM

B3: FcLoop-G4-OSK-G2 (protein)
chain: MDKTHTCPPCPAPELLGGPSVFLFPPKPKDTLMISRTPEVTCVVVDVSHEDPEVKFNWYVDGVEVHNAKTKPREEQYNSTYRVVSVLTVLHQDWLNGKEYKCKVSNKALPAPIEKTISKAKGQPREPQVYTLPPSRDELGGGGGVIINVKCKISRQCLEPCKKAGMRFGKCMNGKCHCTPKGGTKNQVSLTCLVKGFYPSDIAVEWESNGQPENNYKTTPPVLDSDGSFFLYSKLTVDKSRWQQGNVFSCSVMHEALHNHYTQKSLSLSPGK
- IC50 ([1]; read-out: WB/IL-2 (IC50)): 0.15 nM
- IC50 ([2]; read-out: WB/IFNg (IC50)): 0.195 nM

B4: 20k PEG-L2-6H-L3-CH2-L10-OsK1(1-38) (conjugate)
chain: MGGHHHHHHGGGPSVFLFPPKPKDTLMISRTPEVTCVVVDVSHEDPEVKFNWYVDGVEVHNAKTKPREEQYNSTYRVVSVLTVLHQDWLNGKEYKCKVSNKALPAPIEKTISGGGGSGGGGSGVIINVKCKISRQCLEPCKKAGMRFGKCMNGKCHCTPK
- IC50 ([1]; read-out: WB/IL-2 (IC50)): 8.32 nM
- IC50 ([2]; read-out: WB/IFNg (IC50)): 50.1 nM
